Test results from patent US9303033B2, “Pyrazolopyrimidines and related heterocycles as CK2 inhibitors” (SENHWA BIOSCIENCES, INC., priority 2009, dated 2016).
Like-named read-outs stand apart in the source and are kept apart here.

Tests used:
[1] = target: CK2 ααββ (Homo sapiens (Human), UniProt P68400); test: CK2 assay (cell-free, 33P-ATP, phosphocellulose filter plate); assay type: biochemical
Experimental: Modulatory activity of compounds described herein was assessed in vitro in cell-free CK2 assays by the following method.
Reactions were maintained for 40 min at 23° C. The reactions were quenched with 100 ul of 0.75% Phosphoric acid, then transferred to and filtered through a Phosphocellulose filter plate (Millipore, MSPH-N6B-50). After washing each well 4 times with 0.75% Phosphoric acid, scintillation fluid (20 uL) was added to each well and the residual radioactivity was measured using a Wallac luminescence counter.

[2] = system: BxPC3 human pancreatic adenocarcinoma cells; test: Cell proliferation assay with Alamar Blue (AB), BxPC3; assay type: cell-based
Experimental: (§1) A representative cell-proliferation assay protocol using Alamar Blue dye (stored at 4° C., use 20 ul per well) is described hereafter.
(§2) a. Split and trypsinize cells.
(§3) b. Count cells using hemocytometer.
(§4) c. Plate 4,000-5,000 cells per well in 100 μl of medium and seed into a 96-well plate according to the following plate layout. Add cell culture medium only to wells B10 to B12.
(§5) d. Add 100 μl of 2× drug dilution to each well in a concentration shown in the plate layout above. […] Total volume is 200 μl/well.
(§6) e. Incubate four (4) days at 37° C., 5% CO2 in a humidified incubator.
(§7) f. Add […] Alamar Blue reagent to each well.
(§8) g. Incubate for four (4) hours at 37° C., 5% CO2 in a humidified incubator.
(§9) h. Record fluorescence at an excitation wavelength of 544 nm and emission wavelength of 590 nm using a microplate reader.
(§10) In the assays, cells are cultured with a test compound for approximately four days, the dye is then added to the cells and fluorescence of […] dye is detected after approximately four hours. Different types of cells can be utilized in the assays (e.g., HCT-116 human colorectal carcinoma cells, PC-3 human prostatic cancer cells, MDA-MB231 human breast cancer cells, K-562 human chronic myelogenous leukemia (CML) cells, MiaPaca human pancreatic carcinoma cells, MV-4 human acute myeloid leukemia cells, and BxPC3 human pancreatic adenocarcinoma cells).

[3] = target: recombinant human PIM2 (Homo sapiens (Human), UniProt Q9P1W9); test: PIM-2 assay (33P-ATP filter binding); assay type: biochemical; conditions: for PIM2: % inh […]: at […] compound
Sequence of recombinant human PIM2 (Q9P1W9 whole entry): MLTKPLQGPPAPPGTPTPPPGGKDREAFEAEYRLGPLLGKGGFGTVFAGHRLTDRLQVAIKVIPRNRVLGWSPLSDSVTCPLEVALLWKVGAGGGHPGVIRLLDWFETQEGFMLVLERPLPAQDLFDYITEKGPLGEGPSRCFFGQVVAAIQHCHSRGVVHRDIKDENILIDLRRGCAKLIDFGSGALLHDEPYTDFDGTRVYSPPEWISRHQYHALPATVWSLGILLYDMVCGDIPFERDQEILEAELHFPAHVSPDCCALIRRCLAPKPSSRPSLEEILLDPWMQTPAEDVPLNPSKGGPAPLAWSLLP
Experimental: Test compounds dissolved and diluted in DMSO (2 μl) were added to a reaction mixture comprising 10 μl of 5× Reaction Buffer (40 mM MOPS pH 7.0, 5 mM EDTA), 10 μl of recombinant human PIM2 solution (4 ng PIM-2 dissolved in dilution buffer (20 mM MOPS pH 7.0; EDTA 1 mM; 5% Glycerol; 0.01% Brij 35; 0.1%; 0.1% 2-mercaptoethanol; 1 mg/ml BSA)) and 8 ul of water.

[4] = system: MDAMB453; test: Cell proliferation assay with Alamar Blue (AB), MDAMB453; assay type: cell-based
Experimental: as §1, §2, §3, §4, §5, §6, §7, §8, §9, §10

[5] = Tables 41B, 42B, read-out: PIM2: IC50
[6] = MDAMB453 cells, read-out: AB: MDAMB453 IC50
[7] = Homo sapiens, BXPC-3, read-out: AB: BxPC3
[8] = PIM2: IC50 (5 μM ATP), 5 μM ATP
[9] = Homo sapiens, MDA-MB-453, MDAMB453 cells, read-out: AB: MDAMB453

Sequence of CK2 ααββ (P68400 whole entry): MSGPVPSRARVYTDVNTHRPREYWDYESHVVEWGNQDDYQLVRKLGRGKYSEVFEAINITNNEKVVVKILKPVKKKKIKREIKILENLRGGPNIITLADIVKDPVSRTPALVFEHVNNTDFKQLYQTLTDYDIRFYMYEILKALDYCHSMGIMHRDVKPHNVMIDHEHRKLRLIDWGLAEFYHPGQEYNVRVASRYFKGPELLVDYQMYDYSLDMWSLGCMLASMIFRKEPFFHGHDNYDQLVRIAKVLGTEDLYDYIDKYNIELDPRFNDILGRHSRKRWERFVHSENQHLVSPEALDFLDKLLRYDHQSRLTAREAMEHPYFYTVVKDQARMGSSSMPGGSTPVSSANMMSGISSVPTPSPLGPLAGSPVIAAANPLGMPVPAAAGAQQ
Sequence of CK2 ααββ (P67870 whole entry partner): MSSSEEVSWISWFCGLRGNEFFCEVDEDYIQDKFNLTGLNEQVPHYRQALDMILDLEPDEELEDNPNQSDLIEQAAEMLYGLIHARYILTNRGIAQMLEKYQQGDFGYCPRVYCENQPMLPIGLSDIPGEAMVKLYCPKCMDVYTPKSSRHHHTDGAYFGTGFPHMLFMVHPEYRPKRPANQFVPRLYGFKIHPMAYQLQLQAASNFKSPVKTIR

Structure (SMILES) | IC50 [1] [nM] | IC50 [2, 7] [nM] | IC50 [3, 8] [nM] | IC50 [4, 9] [nM] | other results
O=C1NC(=O)C(=Cc2cnn3c(NC4CC4)cc(Oc4cccc(Cl)c4)nc23)N1 [Compound U38] | < 10 | – | – | – | IC50 ([2]; read-out: AB: BxPC3 IC50): 20900 nM; IC50 [3, 5]: > 2500 nM; IC50 [4, 6]: 10700 nM
Cc1cc(COc2cccc(-c3cc(NC4CC4)n4ncc(/C=C5\NC(=O)NC5=O)c4n3)c2)no1 [Example G4] | < 10 | 1190 | > 2500 | 1150 | –
O=C1NC(=O)C(=Cc2cnn3c(NC4CC4)cc(Nc4ccc(OCCN5CCOCC5)c(Cl)c4)nc23)N1 [Example U42] | < 10 | – | – | – | IC50 ([2]; read-out: AB: BxPC3 IC50): 2460 nM; PIM2: % inh […] [3]: 48.912%; IC50 [4, 6]: 1090 nM
O=C1NC(=O)/C(=C/c2cnn3c(NC4CC4)cc(-c4cccc(OCC(=O)N5CCCC5)c4)nc23)N1 [Example H4] | < 10 | 14500 | > 2500 | 1960 | –
O=C1NC(=O)/C(=C/c2cnn3c(NC4CC4)cc(Nc4ccc(Cl)cc4)nc23)N1 [Example I1] | < 10 | 15100 | > 2500 | 11100 | –
CN(C)CCNC(=O)c1cc(-c2cc(NC3CC3)n3ncc(/C=C4\NC(=O)NC4=O)c3n2)ccc1F [Example G5] | < 10 | 1840 | > 2500 | 435 | –
N#Cc1cccc(Cc2cc(NC3CC3)n3ncc(/C=C4\NC(=O)NC4=O)c3n2)c1 | < 10 | 19700 | – | > 30000 | IC50 ([3]; 5 um ATP, read-out: PIM2: IC50 (5 um ATP)): > 2500 nM
Cc1ccc(Nc2cc(NCC3CC3)n3ncc(/C=C4\NC(=O)NC4=O)c3n2)nc1 [Example W1] | < 100 | 9210 | > 2500 | 7420 | –
CC(C)(C)C(=O)N1CCC(Nc2cc(Nc3cccc(Cl)c3)nc3c(/C=C4\NC(=O)NC4=O)cnn23)CC1 [Example M5] | < 100 | 10000 | > 2500 | 874 | –
O=C1NC(=O)/C(=C/c2cnn3c(NC4CC4)cc(-c4cccc(OCCN5CCOCC5)c4)nc23)N1 [Example A4] | < 10 | > 30000 | > 2500 | > 30000 | –
O=C1NC(=O)/C(=C/c2cnn3c(NC4CC4)cc(-c4ccc(O)cc4)nc23)N1 [Example L4] | < 10 | 725 | 1470 | 1790 | –
CN(C)CCCOc1cccc(-c2cc(NC3CC3)n3ncc(/C=C4\NC(=O)NC4=O)c3n2)c1 [Example Z3] | < 10 | 2920 | 2210 | 284 | –
NCc1cccc(-c2cc(NC3CC3)n3ncc(/C=C4\SC(=O)NC4=O)c3n2)c1 [Example J5] | < 1000 | 19000 | 198 | > 30000 | –
O=C1NC(=O)/C(=C/c2cnn3c(NC4CC4)cc(Nc4cccc(Cl)c4)nc23)N1 [Example C1] | < 10 | 15000 | > 2500 | 1040 | IC50 ([3]; read-out: PIM2: IC50): 1300 nM
O=C1NC(=O)/C(=C/c2cnn3c(NC4CC4)cc(-c4ccnc(F)c4)nc23)N1 [Example O4] | < 10 | 1230 | > 2500 | 17100 | –
CC(C)(C)OC(=O)c1cccc(Nc2cc(Nc3cccc(Cl)c3)nc3c(/C=C4\NC(=O)NC4=O)cnn23)c1 [Example B7] | < 10 | 10200 | > 2500 | 7770 | –
CCCS(=O)(=O)Nc1cccc(-c2cc(NC3CC3)n3ncc(/C=C4\NC(=O)NC4=O)c3n2)c1 [Example T4] | < 100 | 2740 | > 2500 | 1710 | –
CC(O)c1cccc(-c2cc(NC3CC3)n3ncc(/C=C4\NC(=O)NC4=O)c3n2)c1 (stereo not drawn) [Example S4] | < 10 | 4610 | > 2500 | 20000 | –
CC1CN(Cc2cc(-c3cc(NC4CC4)n4ncc(C=C5NC(=O)NC5=O)c4n3)cs2)CC(C)O1 (stereo not drawn) [Compound A14] | < 10 | – | – | – | IC50 ([2]; read-out: AB: BxPC3): 1760 nM; IC50 ([3]; read-out: PIM2: IC50 (5 μM ATP), 5 μM ATP): 1570 nM; IC50 ([4]; MDAMB453 cells, read-out: AB: MDAMB453): 1610 nM
Cc1c(Nc2ccc(C#N)cc2F)nc2c(C=C3NC(=O)NC3=O)cnn2c1NC1CC1 [Example C46] | < 10 | – | – | – | IC50 ([2]; read-out: AB: BxPC3 IC50): 15200 nM; PIM2: % inh […] [3]: 59.266%; IC50 [4, 6]: 6290 nM
O=C1NC(=O)/C(=C/c2cnn3c(NC4CC4)cc(-c4cccc(C(F)(F)F)c4)nc23)N1 [Example N4] | < 10 | 12500 | > 2500 | > 30000 | –

Structure (SMILES) | IC50 [1] [nM] | IC50 [2, 7] [nM] | IC50 [3, 8] [nM] | IC50 [4, 9] [nM] | other results
O=C1NC(=O)/C(=C/c2cnn3c(NC4CC4)cc(Nc4ccc(Cl)c(C(F)(F)F)c4)nc23)N1 [Example H1] | < 10 | 3210 | > 2500 | 991 | –
COc1ccc(Nc2cc(NC3CC3)n3ncc(/C=C4\NC(=O)NC4=O)c3n2)cc1Cl [Example K1] | < 10 | 5660 | > 2500 | 7710 | –
CC(C)N1CCN(C(=O)c2cc(-c3cc(NC4CC4)n4ncc(/C=C5\NC(=O)NC5=O)c4n3)ccc2F)CC1 [Example D5] | < 100 | 1210 | > 2500 | 2440 | –
CN(c1cccc(-c2cc(NC3CC3)n3ncc(/C=C4\NC(=O)NC4=O)c3n2)c1)S(C)(=O)=O [Example B5] | < 10 | 5430 | > 2500 | 26700 | –
O=C1NC(=O)/C(=C/c2cnn3c(NCC4CC4)cc(Nc4cccnc4)nc23)N1 [Example V1] | < 100 | 6190 | > 2500 | 5090 | –
CCS(=O)(=O)Nc1cccc(-c2cc(NC3CC3)n3ncc(/C=C4\NC(=O)NC4=O)c3n2)c1 [Example X4] | < 10 | > 30000 | 1730 | > 30000 | –
O=C1NC(=O)C(=Cc2cnn3c(NC4CC4)cc(Nc4ccc(OCCN5CCOCC5)cc4F)nc23)N1 [Example S42] | < 10 | – | – | – | IC50 ([2]; read-out: AB: BxPC3 IC50): 5000 nM; PIM2: % inh […] [3]: 44.49%; IC50 [4, 6]: 2740 nM
O=C1NC(=O)/C(=C/c2cnn3c(NCc4cccnc4)cc(Nc4cccc(Cl)c4)nc23)N1 [Example I6] | < 1000 | 2560 | 704 | 708 | –
O=C1NC(=O)/C(=C/c2cnn3c(NC4CC4)cc(-c4ccc(F)c(C(=O)N5CCOCC5)c4)nc23)N1 [Example F5] | < 10 | 1810 | > 2500 | 948 | –
CC(C)(C)OC(=O)N1CCN(C(=O)c2cccc(Nc3cc(Nc4cccc(Cl)c4)nc4c(/C=C5\NC(=O)NC5=O)cnn34)c2)CC1 [Example E7] | < 10 | 3010 | 2020 | 364 | –
NCc1cccc(-c2cc(NC3CC3)n3ncc(/C=C4\NC(=O)NC4=O)c3n2)c1 [Example R4] | < 10 | 10600 | 48.7 | 14900 | –
O=C1NC(=O)/C(=C/c2cnn3c(NC4CC4)cc(NN4CCOCC4)nc23)N1 [Example S2] | < 10 | 3880 | 1300 | 3510 | –
CS(=O)(=O)c1cccc(-c2cc(NC3CC3)n3ncc(/C=C4\NC(=O)NC4=O)c3n2)c1 [Example X3] | < 10 | 13100 | > 2500 | 517 | –
N#Cc1ccc(Oc2cc(NC3CC3)n3ncc(C=C4NC(=O)NC4=O)c3n2)c(Cl)c1 [Compound V38] | < 10 | – | – | – | IC50 ([2]; read-out: AB: BxPC3 IC50): 5200 nM; IC50 [3, 5]: > 2500 nM; IC50 [4, 6]: 1380 nM
CN1C(=O)NC(=Cc2cnn3c(NC4CC4)cc(Nc4ccccc4F)nc23)C1=O [Example F42] | < 100 | – | – | – | IC50 ([2]; read-out: AB: BxPC3 IC50): > 30000 nM; PIM2: % inh […] [3]: −17.549%; IC50 [4, 6]: 29100 nM
O=C1NC(=O)/C(=C/c2cnn3c(NCC(F)(F)F)cc(Nc4cccc(Cl)c4)nc23)N1 [Example O6] | < 10 | > 30000 | > 2500 | 1140 | –
Cc1c(Nc2ccc(-n3cccn3)cc2)nc2c(/C=C3\NC(=O)NC3=O)cnn2c1NC1CC1 [Example E46] | < 100 | – | – | – | IC50 ([2]; read-out: AB: BxPC3 IC50): 20900 nM; PIM2: % inh […] [3]: 49.545%; IC50 [4, 6]: 16600 nM
CN(C)C1CCN(C(=O)c2cccc(Nc3cc(Nc4cccc(Cl)c4)nc4c(/C=C5\NC(=O)NC5=O)cnn34)c2)C1 (stereo not drawn) [Example C7] | < 10 | > 30000 | 1440 | 6440 | –
CN(C)CCCOc1ccc(Nc2cc(NC3CC3)n3ncc(C=C4NC(=O)NC4=O)c3n2)cc1Cl [Example T42] | < 10 | – | – | – | IC50 ([2]; read-out: AB: BxPC3 IC50): 5330 nM; PIM2: % inh […] [3]: 44.33%; IC50 [4, 6]: 2090 nM
CC(O)CNc1cc(Nc2cccc(Cl)c2)nc2c(/C=C3\NC(=O)NC3=O)cnn12 (stereo not drawn) [Example K6] | < 1000 | 3160 | 317 | 936 | –
